Five compounds from ChEMBL document CHEMBL1156448, “Identification of an efficacy switch region in the ghrelin receptor responsible for interchange between agonism and inverse agonism” (J Biol Chem, 2007) can be followed below.

As usually defined, the IC50 is the concentration at which inhibition is half-maximal.

SMILES strings stand for the structures.

The target of assay [1] is T1, Growth hormone secretagogue receptor type 1 (Homo sapiens, UniProt Q92847). As to the kind of experiment: Displacement of [35S]MK677 from human ghrelin receptor expressed in african green monkey COS7 cells. It is filed as cell-based, COS-7. Background: Loss of bound radioactivity is the signal in a displacement assay; it reports binding, not function.
Assay [2] has as its target T1, Growth hormone secretagogue receptor type 1. The experiment in a line: Inverse agonist activity at human ghrelin receptor expressed in african green monkey COS7 cells assessed as constitutively stimulated inositol phosphate accumulation. Format: functional, cell-based, COS-7.

T1 sequence (Q92847 whole entry): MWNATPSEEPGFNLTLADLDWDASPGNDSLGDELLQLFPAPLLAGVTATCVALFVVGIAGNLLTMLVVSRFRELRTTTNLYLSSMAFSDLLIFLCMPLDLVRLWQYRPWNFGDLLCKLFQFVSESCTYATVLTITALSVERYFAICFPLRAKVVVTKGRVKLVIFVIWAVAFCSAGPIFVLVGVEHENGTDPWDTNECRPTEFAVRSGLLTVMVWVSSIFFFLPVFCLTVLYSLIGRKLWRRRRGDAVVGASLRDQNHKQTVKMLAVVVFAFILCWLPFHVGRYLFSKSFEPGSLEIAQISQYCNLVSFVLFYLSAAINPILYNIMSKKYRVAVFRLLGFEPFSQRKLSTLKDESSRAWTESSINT

For `NC(=O)CNC(=O)CNC(=O)[C@@H](Cc1c[nH]c2ccccc12)NC(=O)[C@H](Cc1ccccc1)NC(=O)[C@H](N)Cc1c[nH]c2ccccc12`, the half-maximal inhibitory concentration (IC50) in assay [1] was determined as 540 nM; in assay [2] it was 159 nM.
Taken in the same sequence, the figures for `C[C@H](NC(=O)[C@H](C)NC(=O)[C@@H](Cc1c[nH]c2ccccc12)NC(=O)[C@H](Cc1ccccc1)NC(=O)[C@H](N)Cc1c[nH]c2ccccc12)C(N)=O` were more than 1000 nM and more than 1000 nM.
For `CC(C)C[C@H](NC(=O)[C@H](CC(C)C)NC(=O)[C@@H](Cc1c[nH]c2ccccc12)NC(=O)[C@H](Cc1ccccc1)NC(=O)[C@@H](Cc1c[nH]c2ccccc12)NC(=O)[C@@H](N)CC(=O)O)C(N)=O`, in that order: 60 nM and 260 nM.
For `CC(C)C[C@H](NC(=O)[C@H](CC(C)C)NC(=O)[C@@H](Cc1c[nH]c2ccccc12)NC(=O)[C@H](Cc1ccccc1)NC(=O)[C@H](N)Cc1c[nH]c2ccccc12)C(N)=O`, in that order: 530 nM and more than 1000 nM.
For `CC(C)C[C@H](NC(=O)[C@H](CC(C)C)NC(=O)[C@@H](Cc1c[nH]c2ccccc12)NC(=O)[C@H](Cc1ccccc1)NC(=O)[C@@H](Cc1c[nH]c2ccccc12)NC(=O)[C@@H](N)CCC(N)=O)C(N)=O`, the half-inhibitory concentration (IC50) in assay [1] was determined as 120 nM; in assay [2] it was 990 nM.
